This is an account of results in patent US10392404B2, “Compounds and compositions as kinase inhibitors” (NOVARTIS AG, priority 2014, dated 2019).

pIC50: −log10 of the molar value.

The pIC50 is the negative decadic logarithm of the IC50, by convention in mol/L. A lower pIC50 goes with a large IC50.

Test [1] addresses T1, b-Raf (V600E) (Homo sapiens, UniProt P15056, V600E).
T1 construct: made in house
Nature of the test: In vitro Raf activity determination (Alpha Screen, biotinylated kinase-dead MEK1 substrate), B-Raf. Type of test: biochemical. Particulars: b-Raf (V600E) approximately 4 pM; ATP 10 μM; pre-incubation 60 minutes; reaction 3 hours at room temperature. Summed up: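 Activated b-Raf(V600E) (~4 pM) pre-incubated 60 min with compound and biotinylated kinase-dead (K97R) MEK1 (~10 nM), then reacted 3 h at room temperature with 10 μM ATP in 50 mM Tris pH 7.5, 15 mM MgCl2, 0.01% BSA, 1 mM DTT. Phospho-MEK detected by AlphaScreen; IC50 by non-linear regression.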

Test [2] deals with T2, C-RAF (Homo sapiens, UniProt P04049, Y340E/Y341E).
T2 construct: His tag (implied by nickel chromatography) (cleaved yes); StrepII tag (cleaved yes); made in house; host or cells: Sf9 insect cells (baculovirus), CRAF and h14-3-3 zeta co-expressed; MEK1 substrate from E. coli
Nature of the test: In vitro Raf activity determination (Alpha Screen, biotinylated kinase-dead MEK1 substrate), C-Raf. Type of test: biochemical. The following applies: c-Raf approximately 4 nM; ATP 1 μM; pre-incubation 60 minutes; reaction 1 hour at room temperature. Summed up: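 Full-length C-Raf carrying Y340E/Y341E, co-expressed with 14-3-3ζ in Sf9 cells, at approximately 4 nM, with approximately 10 nM biotinylated kinase-dead MEK1 (K97R) and 1 μM ATP, pH 7.5. Compound preincubated 60 min, reaction 1 hour at room temperature. Phospho-MEK read by AlphaScreen; IC50 by non-linear regression.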

T2 sequence (P04049 whole entry Y340E/Y341E): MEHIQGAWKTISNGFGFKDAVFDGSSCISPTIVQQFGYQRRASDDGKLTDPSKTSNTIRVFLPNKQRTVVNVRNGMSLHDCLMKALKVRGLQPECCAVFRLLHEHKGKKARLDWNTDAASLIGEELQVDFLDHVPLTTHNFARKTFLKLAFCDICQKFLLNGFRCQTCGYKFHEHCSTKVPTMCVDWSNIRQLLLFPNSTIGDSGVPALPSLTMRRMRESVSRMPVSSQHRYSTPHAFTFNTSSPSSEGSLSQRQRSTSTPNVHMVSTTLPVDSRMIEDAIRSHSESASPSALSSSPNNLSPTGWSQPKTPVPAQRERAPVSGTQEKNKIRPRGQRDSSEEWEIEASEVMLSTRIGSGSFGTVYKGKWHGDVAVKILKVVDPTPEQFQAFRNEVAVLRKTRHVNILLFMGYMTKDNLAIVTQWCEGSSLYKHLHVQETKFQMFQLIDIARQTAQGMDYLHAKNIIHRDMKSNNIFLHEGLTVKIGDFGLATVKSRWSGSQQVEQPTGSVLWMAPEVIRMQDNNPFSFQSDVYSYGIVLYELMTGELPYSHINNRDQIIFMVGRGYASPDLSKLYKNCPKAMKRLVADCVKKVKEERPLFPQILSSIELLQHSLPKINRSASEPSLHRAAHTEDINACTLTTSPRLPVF
T2 sequence (P63104 whole entry partner): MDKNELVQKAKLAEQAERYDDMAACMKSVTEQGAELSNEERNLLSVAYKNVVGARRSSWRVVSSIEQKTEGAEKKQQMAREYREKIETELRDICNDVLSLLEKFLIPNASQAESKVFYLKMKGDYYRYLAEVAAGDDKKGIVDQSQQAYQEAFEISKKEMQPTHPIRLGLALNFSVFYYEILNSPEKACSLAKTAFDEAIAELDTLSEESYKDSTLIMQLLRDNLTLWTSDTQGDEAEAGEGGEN
T1 sequence (P15056 whole entry V600E): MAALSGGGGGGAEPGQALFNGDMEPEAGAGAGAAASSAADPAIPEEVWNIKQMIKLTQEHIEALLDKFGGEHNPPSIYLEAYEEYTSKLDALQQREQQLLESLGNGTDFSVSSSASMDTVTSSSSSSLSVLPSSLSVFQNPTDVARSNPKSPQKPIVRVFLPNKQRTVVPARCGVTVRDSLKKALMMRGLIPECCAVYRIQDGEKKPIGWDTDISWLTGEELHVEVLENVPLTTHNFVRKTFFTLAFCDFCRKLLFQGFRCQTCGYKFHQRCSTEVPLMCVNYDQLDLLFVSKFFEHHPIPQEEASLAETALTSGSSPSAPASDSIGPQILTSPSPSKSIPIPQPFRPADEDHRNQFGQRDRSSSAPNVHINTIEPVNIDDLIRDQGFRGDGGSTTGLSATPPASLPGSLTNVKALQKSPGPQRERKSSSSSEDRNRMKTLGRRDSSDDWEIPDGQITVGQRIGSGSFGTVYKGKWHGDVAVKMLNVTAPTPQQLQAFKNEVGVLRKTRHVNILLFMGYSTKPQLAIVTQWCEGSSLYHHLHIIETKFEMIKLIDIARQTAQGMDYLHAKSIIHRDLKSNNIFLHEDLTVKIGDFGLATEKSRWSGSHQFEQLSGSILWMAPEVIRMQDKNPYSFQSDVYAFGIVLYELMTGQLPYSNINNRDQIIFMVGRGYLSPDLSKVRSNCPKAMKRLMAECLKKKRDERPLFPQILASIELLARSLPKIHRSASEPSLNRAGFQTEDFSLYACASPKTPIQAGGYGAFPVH

Consider `Cc1ncc(NC(=O)c2cc(C(C)(C)C#N)ccn2)cc1-c1cnc(N2CCOCC2)c(C#N)c1` [Example 230, N-(5′-cyano-2-methyl-6′-morpholino-[3,3′-bipyridin]-5-yl)-4-(2-cyanopropan-2-yl)picolinamide], for which the pIC50 in test [1] was 8.58; in test [2], 9.42.

Turning to `Cc1ncc(NC(=O)c2ccnc(C(C)(C)C#N)c2)cc1-c1cnc(-c2cn(C)nc2C)c(C#N)c1` [Example 113, N-(5′-cyano-6′-(1,3-dimethyl-1H-pyrazol-4-yl)-2-methyl-[3,3′-bipyridin]-5-yl)-2-(2-cyanopropan-2-yl)isonicotinamide], the pIC50 in test [1] was 8.20; in test [2], 8.75.

Regarding `Cc1ncc(NC(=O)c2cnnc(C(F)(F)F)c2)cc1-c1cnc(C2CCOCC2)c(C#N)c1` [Example 144, N-(5′-cyano-2-methyl-6′-(tetrahydro-2H-pyran-4-yl)-[3,3′-bipyridin]-5-yl)-6-(trifluoromethyl) pyridazine-4-carboxamide], the pIC50 in test [1] is 7.12; in test [2], 7.90.

For the compound `Cc1ccc(NC(=O)c2ccnc(C(C)(C)C#N)c2)cc1-c1cnc(-c2cnn(C)c2)c(C#N)c1` [Example 125, N-(3-(5-cyano-6-(1-methyl-1H-pyrazol-4-yl)pyridin-3-yl)-4-methylphenyl)-2-(2-cyanopropan-2-yl)isonicotinamide], the values for the pIC50 in test [1] and in test [2] were 8.84 and 9.60, respectively.

Regarding `Cc1ncc(NC(=O)c2ccnc(C(C)(C)O)c2)cc1-c1cnc(N2CCOCC2)c(C#N)c1` [Example 166, N-(5′-cyano-2-methyl-6′-morpholino-[3,3′-bipyridin]-5-yl)-2-(2-hydroxypropan-2-yl)isonicotinamide], the negative logarithm of the IC50 (pIC50) in test [1] is 8.16; in test [2], 8.80.

For `Cc1ccc(NC(=O)c2cccc(S(C)(=O)=O)c2)cc1-c1cnc(N(C)C)c(C#N)c1` [Example 260, N-(3-(5-cyano-6-(dimethylamino)pyridin-3-yl)-4-methylphenyl)-3-(methylsulfonyl) benzamide], the pIC50 in test [1] is 9.53; in test [2] it was 9.94.

As for `Cc1ccc(NC(=O)c2cccc(C(F)(F)F)c2)cc1-c1cncc(C#N)c1` [Example 34, N-(3-(5-cyanopyridin-3-yl)-4-methylphenyl)-3-(trifluoromethyl) benzamide], the pIC50 in test [1] was 8.41; in test [2], 9.21.

In the case of `Cc1ncc(NC(=O)c2ccnc(C(C)(C)C#N)c2)cc1-c1cnc(NC2CC2)c(C#N)c1` [Example 82, N-(5′-cyano-6′-(cyclopropylamino)-2-methyl-[3,3′-bypyridin]-5-yl)-2-(2-cyanopropan-2-yl)isonicotinamide], the pIC50 in test [1] is 7.97; in test [2] it was 8.69.

Regarding `Cc1ccc(NC(=O)c2ccnc(C(F)(F)F)c2)cc1-c1cnc(-n2ccc(=O)cc2)c(C#N)c1` [Example 119, N-(3-(3′-cyano-4-oxo-4H-[1,2′-bipyridin]-5′-yl)-4-methylphenyl)-2-(trifluoromethyl) isonicotinamide], the pIC50 is 7.91 in test [1] and 8.78 in test [2].

As for `Cc1ncc(NC(=O)c2ccnc(C(C)(C)C#N)c2)cc1-c1cnc(N2CCOCC2)c(C#N)c1` [Example 64, N-(5′-cyano-2-methyl-6′-morpholino-[3,3′-bipyridin]-5-yl)-2-(2-cyanopropan-2-yl)isonicotinamide], the negative logarithm of the IC50 (pIC50) in test [1] was 8.43; in test [2] it was 9.08.

For `Cc1ncc(NC(=O)c2cccc(S(C)(=O)=O)c2)cc1-c1cnc(N(C)C)c(C#N)c1` [Example 270, N-(5′-cyano-6′-(dimethylamino)-2-methyl-[3,3′-bipyridin]-5-yl)-3-(methylsulfonyl) benzamade], the negative-log IC50 (pIC50) is 8.27 in test [1] and 9.31 in test [2].

`COCCNc1ncc(-c2cc(NC(=O)c3ccnc(C4(C#N)CC4)c3)cnc2C)cc1C#N` [Example 197, N-(5′-cyano-6′-((2-methoxyethyl)amino)-2-methyl-[3,3′-bipyridin]-5-yl)-2-(1-cyanocyclopropyl) isonicotinamide]: the pIC50 was 8.28 in test [1] and 9.09 in test [2].

As for `Cc1ccc(NC(=O)c2ccnc(C(C)(C)O)c2)cc1-c1cnc(NC2CCOCC2)c(C#N)c1` [Example 168, N-(3-(5-cyano-6-((tetrahydro-2H-pyran-4-yl)amino)pyridin-3-yl)-4-methylphenyl)-2-(2-hydroxypropan-2-yl)isonicotinamide], the pIC50 in test [1] is 8.84; in test [2] it was 9.31.

Turning to `Cc1ncc(NC(=O)c2ccnc(C3(C#N)CC3)c2)cc1-c1cnc(N2CCOCC2)c(C#N)c1` [Example 146, N-(5′-cyano-2-methyl-6′-morpholino-[3,3′-bipyridin]-5-yl)-2-(1-cyanocyclopropyl) isonicotinamide], the values for the negative-log IC50 (pIC50) in test [1] and in test [2] were 8.87 and 9.58, respectively.

As for `Cc1ccc(NC(=O)c2ccnc(C(C)(C)C#N)c2)cc1-c1cnc(N2CCNCC2)c(C#N)c1` [Example 151, N-(3-(5-cyano-6-(piperazin-1-yl)pyridin-3-yl)-4-methylphenyl)-2-(2-cyanopropan-2-yl)isonicotinamide], the results for the negative logarithm of the IC50 (pIC50) in test [1] and in test [2] were 8.85 and 9.45, respectively.

Take `Cc1ncc(NC(=O)c2ccnc(C3(C#N)CC3)c2)cc1-c1cnc(C2CCOCC2)c(C#N)c1` [Example 148, N-(5'-cyano-2-methyl-6'-(tetrahydro-2H-pyran-4-yl)-[3,3'-bipyridin]-5-yl)-2-(1-cyanocyclopropyl) isonicotinamide]: the figures for the pIC50 in test [1] and in test [2] were 8.48 and 9.14, respectively.

Consider `Cc1ncc(NC(=O)c2ccnc(C(C)(C)C#N)c2)cc1-c1cnc(-c2ccncc2)c(C#N)c1` [Example 107], for which the figures for the pIC50 in test [1] and in test [2] were 8.04 and 8.67, respectively.

Consider `Cc1ncc(NC(=O)c2ccnc(C(C)(C)C#N)c2)cc1-c1cnc(OC(C)C)c(C#N)c1` [Example 96, N-(5′-cyano-6′-isopropoxy-2-methyl-[3,3′-bipyridin]-5-yl)-2-(2-cyanopropan-2-yl)isonicotinamide], for which the pIC50 in test [1] is 7.93; in test [2] it was 8.45.

For the compound `Cc1ccc(NC(=O)c2ccnc(C(F)F)c2)cc1-c1cnc(N2CCNCC2)c(C#N)c1` [Example 160, N-(3-(5-cyano-6-(piperazin-1-yl)pyridin-3-yl)-4-methylphenyl)-2-(difluoromethyl) isonicotinamide], the pIC50 in test [1] is 8.80; in test [2], 9.80.

On to `Cc1ncc(NC(=O)c2cccc(C(F)F)c2)cc1-c1cnc(N2CC(C)(O)C2)c(C#N)c1` [Example 184, N-(5′-cyano-6′-(3-hydroxy-3-methylazetidin-1-yl)-2-methyl-[3,3′-bipyridin]-5-yl)-3-(difluoromethyl) benzamide], for which the results for the pIC50 in test [1] and in test [2] were 8.10 and 8.94, respectively.

On to `Cc1ccn(-c2ncc(-c3cc(NC(=O)c4ccnc(C(C)(C)C#N)c4)cnc3C)cc2C#N)n1` [Example 83, N-(5′-cyano-2-methyl-6′-(3-methyl-1H-pyrazol-1-yl)-[3,3′-bipyridin]-5-yl)-2-(2-cyanopropan-2-yl)isonicotinamide], for which the negative logarithm of the IC50 (pIC50) in test [1] was 7.63; in test [2], 8.31.

In the case of `Cc1ncc(NC(=O)c2ccnc(C(C)(C)O)c2)cc1-c1cnc(N2CC(C)(O)C2)c(C#N)c1` [Example 185, N-(5′-cyano-6′-(3-hydroxy-3-methylazetidin-1-yl)-2-methyl-[3,3′-bipyridin]-5-yl)-2-(2-hydroxypropan-2-yl)isonicotinamide], the negative-log IC50 (pIC50) in test [1] is 7.21; in test [2], 7.96.

Consider `Cc1ccc(NC(=O)c2cnnc(C(C)(C)F)c2)cc1-c1cnc(N2CC(C)(O)C2)c(C#N)c1` [Example 194, N-(3-(5-cyano-6-(3-hydroxy-3-methylazetidin-1-yl)pyridin-3-yl)-4-methylphenyl)-6-(2-fluoropropan-2-yl)pyridazine-4-carboxamide], for which the negative-log IC50 (pIC50) in test [1] is 8.82; in test [2], 9.55.

Take `Cc1ccc(C(=O)Nc2cccc(C(F)(F)F)c2)cc1-c1cnc(N)c(C#N)c1` [Example 3, 3-(6-amino-5-cyanopyridin-3-yl)-4-methyl-N-(3-(trifluoromethyl)phenyl)benzamide]: the negative logarithm of the IC50 (pIC50) in test [1] is 9.00; in test [2], 9.90.

`COCCNc1ncc(-c2cc(NC(=O)c3cnnc(C(C)(C)C#N)c3)ccc2C)cc1C#N` [Example 201, N-(3-(5-cyano-6-((2-methoxyethyl)amino)pyridin-3-yl)-4-methylphenyl)-6-(2-cyanopropan-2-yl)pyridazine-4-carboxamide]: the negative-log IC50 (pIC50) in test [1] is 8.52; in test [2], 9.35.

For the compound `Cc1ccc(NC(=O)c2ccnc(C(C)(C)C#N)c2)cc1-c1cnc(N(C)C)c(C#N)c1` [Example 16, N-(3-(5-cyano-6-(dimethylamino)pyridin-3-yl)-4-methylphenyl)-2-(2-cyanopropan-2-yl)isonicotinamide], the values for the pIC50 in test [1] and in test [2] were 8.81 and 9.67, respectively.

For `Cc1ccc(NC(=O)c2cnnc(C(F)(F)F)c2)cc1-c1cnc(N2CCOCC2)c(C#N)c1` [Example 208, N-(3-(5-cyano-6-morpholinopyridin-3-yl)-4-methylphenyl)-6-(trifluoromethyl) pyridazine-4-carboxamide], the negative-log IC50 (pIC50) in test [1] is 9.40; in test [2] it was 10.01.
